Results published in PMC12020424, “Identification and Validation of Cyclic Peptides with Mucin-Selective, Location-Specific Binding in the Gastrointestinal Tract” (ACS Nano, 2025).
Bridge positions count the residues as written; N and C are the ends. Ends that are not written are not given here.

Molecular target: MUC5AC (Homo sapiens, UniProt P98088)
Assay: Phage display (CX7C library) against MUC5AC, Sanger sequencing
Type: binding
Settings: MUC5AC phage screening, third round of panning, 16 sequenced candidates
Experimental: For each mucin of interest, 5 μg of mucin protein was diluted in 150 μL of Tris-buffered saline (TBS) and added to 2 wells of a microtiter plate. The plate was left overnight in a humidified, sealed container with agitation at 50 rpm. After the overnight mucin coating, the solution was poured out, and 300 μL of blocking buffer was added to the wells for 1 h. After the 1 h waiting period, the blocking buffer was poured out, and the wells were washed three times with 300 μL of Tris-buffered saline with TBST (TBS + 0.1% (v/v) Tween-20) to remove nonspecific binding on the mucin layer coating. Next, 5 μL of the C7C library diluted with 95 μL of TBST was added to each blocked well and placed on shaker for 45 min, before pouring out the nonbinding phage and washing the plate ten times with TBST. A 0.2 M glycine-HCl elution buffer (pH 2.2, 100 μL) was added to each well and placed on a shaker for 20 min to release the mucin-layer binding peptides on the plate as unamplified eluate, with the pH neutralized by 30 μL of neutralization buffer (1 M Tris-HCl, pH 9).
E. coli liquid cultures were prepared by adding E. coli cells to 20 mL of LB media and placing them in shaking conditions at 37 °C and 250 rpm for 2 h and 45 min. The unamplified eluate (1 μL of which was saved for titering) was added to the E. coli cultures under the same conditions for 4 h and 45 min for amplification. […]

Sequence: CTDKASSSC (disulfide 1-9 (inferred)) [Peptide M5.1, CX7C cyclic peptide hit for MUC5AC]
- % Prevalence: 18.75%
